Experimental data: patent US20100113466A1, “OXAZOLE-PYRIDAZINE-OXAZOLE ALPHA-HELIX MIMETIC” (The Scripps Research Institute, priority 2008, published 2010)

Target: Bcl-xL (Homo sapiens, UniProt Q07817)
Experiment: Bak/Bcl-XL competitive fluorescence polarization binding assay with fluorescein labeled Bid peptide
Conditions: displacement of fluorescein labeled Bid peptide from Bcl-xL; mP values only in drawings
Excerpt: The affinity of each molecule within the library of potential Bak mimetics can be assayed with respect to binding to Bcl-xL receptor. The binding affinity can be determined, for example, by a competitive binding assay based on fluorescence polarization. See Wang, et al., Proc. Natl. Acad. Sci., 2000, 97:7124-7129.
Competitive fluorescence polarization-based assays require a dye-labeled peptide to determine if the small molecule has affinity for the target protein. These assays can be carried out with a fluorescein labeled Bid peptide. […] When a solution of fluorescein labeled Bid peptide is irradiated with polarized light, the peptide rotates quickly and the emitted light is depolarized. Upon complexation with the target Bcl-xL protein, the larger complex rotates slowly and the emitted light remains polarized.
When the fluorescein-labeled Bid/Bcl-xL complex is exposed to small molecules with binding affinity for Bcl-xL, the Bid peptide is displaced and the amount of depolarized light emitted increases. This polarization amount (mP) provides an estimate of the affinity for the small molecules for Bcl-xL
See Kutzki, et al., J. Am. Chem. Soc., 2002, 124:11838-11839. This compound acts as a positive control.
These compounds represent the strongest binders for Bcl-xL of the Bak mimetic library, with structure and mP values shown below.

Bcl-xL, sequence (Q07817 whole entry, species assumed): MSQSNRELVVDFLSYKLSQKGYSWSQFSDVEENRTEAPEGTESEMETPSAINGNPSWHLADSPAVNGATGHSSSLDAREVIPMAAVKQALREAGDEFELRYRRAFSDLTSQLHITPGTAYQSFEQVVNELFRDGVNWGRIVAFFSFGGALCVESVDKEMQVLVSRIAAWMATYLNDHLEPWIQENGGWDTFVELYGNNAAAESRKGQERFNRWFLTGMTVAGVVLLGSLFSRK

SMILES	activity (mP value) in binding to Bcl-xL
CC(C)Cc1cc(-c2nc(C(C)C)co2)nnc1-c1nc(C(C)C)co1 [Compound 4.53, 2,2′-(4-isobutylpyridazine-3,6-diyl)bis(4-isopropyloxazole)]	particularly active
CC(C)Cc1cc(C(=O)N2CCC[C@@H](OCc3ccccc3)C2)nnc1-c1nc(C(C)C)co1 [Compound 4.73, (R)-(3-(Benzyloxy)piperidin-1-yl)(5-isobutyl-6-(4-isopropyloxazol-2-yl)pyridazin-3-yl)methanone]	particularly active
